How the values were obtained:
[1] = target: Isoleucine--tRNA ligase (Escherichia coli (strain K12), UniProt P00956); assay: Enzyme Inhibition Assay
Description: (§1) Single Point Percentage InhibitionThe activity of the pathogenic aaRSs was monitored by measuring AMP production using the commercial kit AMP-Glo (Promega, Madison, USA).Ligand stock solutions were prepared in 100% DMSO at 10 mM concentration. An assay buffer consisting of 100 mM Tris HCl pH 7.6, 40 mM MgCl, 20 mM KCl and 150 mM NaCl was prepared in dH2O. […] A substrate solution was also prepared in assay buffer with 50 mM L-leucine, 10 mM ATP and 100 mg/mL tRNA.

[2] = target: Leucine--tRNA ligase (Escherichia coli (strain K12), UniProt P07813); assay: Enzyme Inhibition Assay
Sequence of Leucine--tRNA ligase (P07813 whole entry): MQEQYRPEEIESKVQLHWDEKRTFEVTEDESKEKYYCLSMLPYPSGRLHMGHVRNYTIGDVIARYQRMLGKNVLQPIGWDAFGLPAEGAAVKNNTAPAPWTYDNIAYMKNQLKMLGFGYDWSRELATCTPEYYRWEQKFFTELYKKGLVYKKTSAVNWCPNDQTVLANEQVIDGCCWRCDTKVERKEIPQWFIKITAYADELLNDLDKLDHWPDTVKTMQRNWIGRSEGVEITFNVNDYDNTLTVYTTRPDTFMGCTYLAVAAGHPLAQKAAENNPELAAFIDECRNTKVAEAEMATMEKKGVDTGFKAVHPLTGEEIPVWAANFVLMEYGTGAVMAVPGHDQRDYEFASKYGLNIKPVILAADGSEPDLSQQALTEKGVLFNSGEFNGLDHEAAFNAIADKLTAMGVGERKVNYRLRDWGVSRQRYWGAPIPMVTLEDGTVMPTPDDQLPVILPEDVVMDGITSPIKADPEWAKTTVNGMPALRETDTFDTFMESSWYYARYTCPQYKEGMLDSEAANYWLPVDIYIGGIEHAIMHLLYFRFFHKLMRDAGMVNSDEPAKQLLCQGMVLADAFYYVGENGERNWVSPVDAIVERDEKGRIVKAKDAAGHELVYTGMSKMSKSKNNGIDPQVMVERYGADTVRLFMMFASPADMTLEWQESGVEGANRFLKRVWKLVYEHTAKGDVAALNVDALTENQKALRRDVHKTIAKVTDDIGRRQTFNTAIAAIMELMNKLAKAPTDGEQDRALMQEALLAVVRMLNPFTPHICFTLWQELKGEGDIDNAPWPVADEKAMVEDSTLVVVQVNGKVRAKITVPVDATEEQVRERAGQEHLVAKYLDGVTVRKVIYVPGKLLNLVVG
Description: as §1

Sequence of Isoleucine--tRNA ligase (P00956 whole entry): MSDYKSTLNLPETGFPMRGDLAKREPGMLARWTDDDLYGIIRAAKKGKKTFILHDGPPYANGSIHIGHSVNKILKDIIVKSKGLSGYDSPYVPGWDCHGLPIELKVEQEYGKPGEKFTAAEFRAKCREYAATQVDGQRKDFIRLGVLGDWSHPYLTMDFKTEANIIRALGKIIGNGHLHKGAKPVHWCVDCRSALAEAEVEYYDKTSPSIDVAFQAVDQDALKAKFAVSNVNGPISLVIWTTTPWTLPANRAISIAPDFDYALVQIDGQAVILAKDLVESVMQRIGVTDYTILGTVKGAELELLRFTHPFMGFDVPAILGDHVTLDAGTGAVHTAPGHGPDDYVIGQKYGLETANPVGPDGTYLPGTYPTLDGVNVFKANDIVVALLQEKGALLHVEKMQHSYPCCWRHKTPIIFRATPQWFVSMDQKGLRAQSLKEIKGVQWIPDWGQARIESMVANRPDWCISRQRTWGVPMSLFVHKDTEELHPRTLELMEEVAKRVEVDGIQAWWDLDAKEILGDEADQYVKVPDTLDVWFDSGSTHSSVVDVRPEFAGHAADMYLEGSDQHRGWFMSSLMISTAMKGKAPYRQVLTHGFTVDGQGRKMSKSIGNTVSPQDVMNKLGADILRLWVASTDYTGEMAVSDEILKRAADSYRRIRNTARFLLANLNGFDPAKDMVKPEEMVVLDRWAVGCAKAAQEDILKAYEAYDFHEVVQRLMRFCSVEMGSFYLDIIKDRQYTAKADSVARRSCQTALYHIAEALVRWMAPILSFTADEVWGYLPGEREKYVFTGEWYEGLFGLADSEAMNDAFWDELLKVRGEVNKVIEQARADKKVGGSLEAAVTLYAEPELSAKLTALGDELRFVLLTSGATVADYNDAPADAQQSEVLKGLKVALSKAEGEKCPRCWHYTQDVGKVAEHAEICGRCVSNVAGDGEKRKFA

Row | SMILES | IC50 [1] [µM] | IC50 [2] [µM]
1 | CC[C@H](C)[C@H](N)C(=O)N=S(N)(=O)c1ccc2ccccc2c1 (some centres not stated) [US12247004, Compound ANASIA-030] | 9.59 | –
2 | CC(C)C[C@H](N)C(=O)N=S(N)(=O)c1cc[nH]n1 (some centres not stated) [US12247004, Compound ANASIA-064] | – | 2.17

From BindingDB's records for patent US12247004 (Oxford Drug Design, 2025)
